Source: patent US12643867B2, “Compositions and uses thereof” (University of Virginia Patent Foundation, priority 2017, dated 2026)

What was measured:
Assay in all cases: SILAC LC-MS ATP acyl phosphate probe competition, native kinases in HEK293T
Assay type in all cases: binding
[1] = target: T1, MP2K6 (Dual specificity mitogen-activated protein kinase kinase 6) (Homo sapiens, UniProt P52564); conditions: site Lys1; ATP 1 mM; Ketanserin, Ritanserin 100 μM; RF001 1 mM
T1 construct: Native kinases; endogenous in cells; host or cells: HEK293T soluble proteome
T1 sequence (P52564 1-334): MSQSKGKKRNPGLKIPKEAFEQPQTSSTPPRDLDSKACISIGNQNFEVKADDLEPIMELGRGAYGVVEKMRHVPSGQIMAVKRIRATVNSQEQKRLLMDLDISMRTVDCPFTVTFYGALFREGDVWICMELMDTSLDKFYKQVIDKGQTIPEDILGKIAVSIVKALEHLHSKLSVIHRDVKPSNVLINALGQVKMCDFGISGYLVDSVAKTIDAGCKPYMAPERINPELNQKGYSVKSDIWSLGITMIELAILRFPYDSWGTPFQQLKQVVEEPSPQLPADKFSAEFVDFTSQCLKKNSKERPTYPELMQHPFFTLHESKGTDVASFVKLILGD
How it was run: (§1)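 First, HEK293T proteomes at 2 mg/ml in kinase buffer were exposed to compound (heavy) or DMSO (light) for 30 min at 25° C. Next, samples were pooled 1:1 and trypsin/Lys-C digested. Finally, desthiobiotin peptides were enriched on avidin and measured by data-dependent LC-MS/MS.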

[2] = target: T2, CHK2 (Serine/threonine-protein kinase Chk2) (Homo sapiens, UniProt O96017); conditions: for SILAC ratio, CHK2 probe-modified peptide: site Lys1, ATP 1 mM, Ketanserin, Ritanserin 100 μM, RF001 1 mM
T2 construct: measured against >50 native kinases quantified in HEK293T soluble proteomes; endogenous in cells; host or cells: HEK293T soluble proteome
T2 sequence (O96017 whole entry): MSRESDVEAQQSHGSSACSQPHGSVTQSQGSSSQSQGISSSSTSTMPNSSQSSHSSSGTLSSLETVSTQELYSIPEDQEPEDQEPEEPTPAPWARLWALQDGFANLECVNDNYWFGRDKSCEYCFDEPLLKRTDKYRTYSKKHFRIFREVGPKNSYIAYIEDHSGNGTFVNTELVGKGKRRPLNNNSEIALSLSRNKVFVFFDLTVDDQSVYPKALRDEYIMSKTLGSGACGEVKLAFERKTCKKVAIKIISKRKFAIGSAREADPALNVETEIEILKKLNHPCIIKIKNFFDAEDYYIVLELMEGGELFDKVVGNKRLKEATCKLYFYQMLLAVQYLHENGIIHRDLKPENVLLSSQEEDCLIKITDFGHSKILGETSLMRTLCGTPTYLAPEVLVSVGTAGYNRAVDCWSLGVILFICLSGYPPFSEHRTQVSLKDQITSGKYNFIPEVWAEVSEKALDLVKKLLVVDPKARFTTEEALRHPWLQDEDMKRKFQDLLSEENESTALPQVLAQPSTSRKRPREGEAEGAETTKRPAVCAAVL
How it was run: as §1

[3] = target: T3, NEK3 (Serine/threonine-protein kinase Nek3) (Homo sapiens, UniProt P51956); conditions: site ACT; ATP 1 mM; Ketanserin, Ritanserin 100 μM; RF001 1 mM
T3 construct: Native kinases; endogenous in cells; host or cells: HEK293T soluble proteome
T3 sequence (P51956 1-506): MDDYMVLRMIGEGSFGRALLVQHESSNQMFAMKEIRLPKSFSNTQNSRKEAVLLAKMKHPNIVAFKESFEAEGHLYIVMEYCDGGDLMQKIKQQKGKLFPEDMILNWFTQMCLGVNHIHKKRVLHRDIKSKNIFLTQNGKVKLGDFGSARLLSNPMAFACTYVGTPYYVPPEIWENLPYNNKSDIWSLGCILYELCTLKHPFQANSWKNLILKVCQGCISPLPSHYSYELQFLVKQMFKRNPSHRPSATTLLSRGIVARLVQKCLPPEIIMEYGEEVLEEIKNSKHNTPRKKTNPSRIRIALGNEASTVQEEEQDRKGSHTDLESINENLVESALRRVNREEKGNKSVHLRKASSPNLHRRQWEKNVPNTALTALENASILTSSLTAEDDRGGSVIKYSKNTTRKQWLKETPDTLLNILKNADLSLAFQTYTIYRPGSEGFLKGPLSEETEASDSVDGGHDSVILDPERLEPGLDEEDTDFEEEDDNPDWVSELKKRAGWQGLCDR
How it was run: as §1

[4] = target: T4, KCC1D (Calcium/calmodulin-dependent protein kinase type 1D) (Homo sapiens, UniProt Q8IU85); conditions: site Lys1; ATP 1 mM; Ketanserin, Ritanserin 100 μM; RF001 1 mM
T4 construct: measured against >50 native kinases quantified in HEK293T soluble proteomes; endogenous in cells; host or cells: HEK293T soluble proteome
T4 sequence (Q8IU85 whole entry): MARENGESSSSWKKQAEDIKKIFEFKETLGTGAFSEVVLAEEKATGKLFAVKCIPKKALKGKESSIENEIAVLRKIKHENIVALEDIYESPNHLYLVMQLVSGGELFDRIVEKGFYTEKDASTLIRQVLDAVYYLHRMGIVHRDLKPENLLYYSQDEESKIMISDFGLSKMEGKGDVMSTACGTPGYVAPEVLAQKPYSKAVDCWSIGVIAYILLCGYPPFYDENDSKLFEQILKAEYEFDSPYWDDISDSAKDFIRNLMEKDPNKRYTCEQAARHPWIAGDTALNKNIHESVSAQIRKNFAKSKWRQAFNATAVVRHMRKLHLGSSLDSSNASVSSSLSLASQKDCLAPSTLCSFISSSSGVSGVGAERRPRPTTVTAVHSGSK
How it was run: as §1

`O=C(c1ccc(F)cc1)C1CCN(CCn2c(=O)[nH]c3ccccc3c2=O)CC1` [Ketanserin] was tested, and the “SILAC ratio, MP2K6 probe-modified peptide” value [1] was 1.4, the “SILAC ratio, CHK2 probe-modified peptide” value [2] was 1.6 and the “SILAC ratio, NEK3 probe-modified peptide” value [3] was 1.0. The “SILAC ratio, KCC1D probe-modified peptide” value [4] was 1.5.
For `Fc1ccc(C(=C2CCNCC2)c2ccc(F)cc2)cc1` [RF001, 4-(Bis(4-fluorophenyl)methylene) piperidine], the “SILAC ratio, MP2K6 probe-modified peptide” value [1] was 1.1, the “CHK2 ATP acyl-phosphate labeling response (words, FIG. 20)” value ([2]; H82 and HEK293T, 1 mM RF001) was “activator of CHK2” and the “SILAC ratio, CHK2 probe-modified peptide” value [2] was 0.2. For the same compound, the “SILAC ratio, NEK3 probe-modified peptide” value [3] was 1.0 and the “SILAC ratio, KCC1D probe-modified peptide” value [4] was 1.1.
With `Cc1nc2sccn2c(=O)c1CCN1CCC(=C(c2ccc(F)cc2)c2ccc(F)cc2)CC1` [Ritanserin] the “SILAC ratio, MP2K6 probe-modified peptide” value [1] was 2.2, the “SILAC ratio, CHK2 probe-modified peptide” value [2] was 2.2 and the “SILAC ratio, NEK3 probe-modified peptide” value [3] was 2.2. For the same compound, the “SILAC ratio, KCC1D probe-modified peptide” value [4] was 2.3.
